Data: patent publication US20230295133A1, “PROCESS FOR PREPARING A COMPOUND USEFUL TO TREAT MYCOSES” (PULMOCIDE LIMITED, priority 2014, published 2023)
≈ marks a conversion by molar mass, not a printed value.

Experiments:
[1] = Cell viability: resazurin assay; type: cell-based, human; details: human, BEAS2B cells; n = 3-5
Description: BEAS2B cells were seeded in 384-well plates (100 µL; 3000 / well /; BD Falcon, Catalogue No 353962) in RPMI-LHC8 (RPMI-1640 and LHC8 media combined in equal proportions) one day before experimentation. For cell-free control wells, RPMI-LHC8 (100 µL) was added. Test compounds (0.5 µL of a DMSO solution) were added to give a final DMSO concentration of 0.5% using an Integra VIAFLO 96 (Integra, Zizers, Switzerland). BEAS2B cells were incubated with each test compound for 1 day (37° C. / 5% CO2 in RPMI-LHC8). After addition of resazurin stock solution (5 µL, 0.04%) the plates were incubated for a further 4 hr (37° C. / 5% CO2). The fluorescence of each well at 545 nm (excitation) and 590 nm (emission) was determined using a multi-scanner (Clariostar: BMG Labtech). The percentage loss of cell viability was calculated for each well relative to vehicle (0.5% DMSO) treatment. Where appropriate, a CC50 value was calculated from the concentration-response curve generated from the concentration-response curve for each test compound.

[2] = test system: Aspergillus fumigatus L98H (TR34/L98H); experiment: Broth microdilution assay (modified EUCAST); type: cell-based; details: Aspergillus fumigatus, read-out: MIC75 against Aspergillus fumigatus isolate L98H
Description: (§1) This assay was conducted using a modified method published by EUCAST (Rodriguez-Tudela et al., 2008). Spores of aspergillus fumigatus (NCPF2010, NCPF7010 (Methionine 220 mutation), NCPF7099 (Glycine G54 mutation) from Public Health England, Wiltshire; TR34/L98H mutants from St Louis Hospital, Paris, France) were cultured in Sabouraud dextrose agar for 3 days. A stock spore suspension was prepared from a Sabouraud dextrose agar culture by washing with PBS-tween (10 mL; PBS containing 0.05% Tween-20, 100 U/mL Penicillin and 100 U/mL Streptomycin). The spore count was assessed using a Neubauer haemocytometer and then adjusted to 10^6 spores/mL with PBS. A working suspension of spores (2 × 10^5 spores/mL) was prepared in filter sterilised, BSA MOPS RPMI-1640 (50 mL; RPMI-1640 containing 2 mM L-glutamine, 0.5% BSA, 2% glucose, 0.165 M MOPS, buffered to pH 7 with NaOH). For the assay, BSA MOPS RPMI-1640 (50 µL/well) was added throughout the 384-well plate (Catalogue number 353962, BD Falcon, Oxford, UK) first. Test compounds (0.5 µL DMSO solution) were then added in quadruplicate using an Integra VIAFLO 96 (Integra, Zizers, Switzerland), and mixed well using a plate mixer. Subsequently 50 µL of the working spore suspension prepared above was added to all wells except non-spore control wells. For non-spore control wells, BSA MOPS-RPMI solution (50 µL/well) was added instead. The plate was covered with a plastic lid, and incubated (35° C. with ambient air) for 48 hr. The OD of each well at 530 nm was determined using a multi-scanner (Clariostar: BMG, Buckinghamshire, UK). The percentage inhibition for each well was calculated and the MIC50, MIC75 and MIC90 values were calculated from the concentration-response curve generated for each test compound.

[3] = test system: Aspergillus fumigatus NCPF2010; experiment: Broth microdilution assay (modified EUCAST); type: cell-based; details: Aspergillus fumigatus, NCPF2010, read-out: MIC75 against Aspergillus fumigatus isolate NCPF2010
Description: as §1

[4] = test system: aspergillus fumigatus infection of BEAS2B cells; experiment: Aspergillus fumigatus infection of bronchial epithelial cells (GM in supernatant); type: cell-based; details: bronchial epithelial cells infected with Aspergillus fumigatus; read-out: MIC50 Infection of BEAS2B cells
Description: BEAS2B cells were seeded in 96-well plates (100 µL; 30,000 cells / well; Catalogue No 3596, Sigma Aldrich, Dorset, UK) in 10% FBS RPMI-1640 and were then incubated (37° C., 5% CO2) for one day before experimentation. Test compounds (0.5 µL DMSO solution) or vehicle (DMSO) were added to each well to give a final DMSO concentration of 0.5%. BEAS2B cells were incubated with test compounds for 1 hr (35° C., 5% CO2) before infection with aspergillus fumigatus (20 µL; Public Health England) conidia suspension (0.5×10^5 /ml in 10% FBS RPMI-1640). The plate was incubated for 24 hr (35° C., 5% CO2). Supernatant (50 µL) was collected and transferred to a PCR plate (Catalogue No L1402-9700, Starlab, Milton Keynes, UK), which was frozen (-20° C.) until use. After thawing, supernatant (5 µL) was diluted 1:20 by adding R7-PBS solution (95 µL; 1:4 R7 to PBS; Bio-Rad Laboratories, Redmond, WA, USA). GM levels in these samples (50 µL) were measured using Platelia GM-EIA kits (Bio-Rad Laboratories, Redmond, WA, USA). The percentage inhibition for each well was calculated and the IC50 value was calculated from the concentration-response curve generated for each test compound.

[5] = test system: Aspergillus fumigatus NCPF7099; experiment: Broth microdilution assay (modified EUCAST); type: cell-based; details: Aspergillus fumigatus, NCPF7099, n = 3, read-out: MIC75 against Aspergillus fumigatus isolate NCPF7099
Description: as §1

[6] = test system: Aspergillus fumigatus NCPF7100; experiment: Broth microdilution assay (modified EUCAST); type: cell-based; details: Aspergillus fumigatus, NCPF7100, read-out: MIC75 against Aspergillus fumigatus isolate NCPF7100
[7] = test system: aspergillus fumigatus (ATCC 13073 [strain: NIH 5233]); experiment: In vivo anti-fungal activity, prophylactic and therapeutic treatment of infected immunocompromised neutropenic mice; set-up: species or system A/J mice; details: prophylactic treatment (days 0, 1, 2 and 3); 0.4 mg/mL

SMILES	CC50 at 1 day [1]	MIC [2]	MIC [3]	MIC50 [4]	MIC [5]	MIC [6]	% Inhibition versus Infected Controls, GM in BALF [7]	% Inhibition versus Infected Controls, GM in serum [7]	% Inhibition versus Infected Controls, Lung Fungal Load [7]
Cc1cc(N2CCN(c3ccc(C(=O)Nc4ccc(OC(F)(F)F)cn4)cc3)CC2)ccc1OC[C@@H]1CO[C@@](Cn2cncn2)(c2ccc(F)cc2F)C1 [Example 39, 4-(4-(4-(((3R,5R)-5-((1H-1,2,4-triazol-1-yl)methyl)-5-(2,4-difluorophenyl)tetrahydrofuran-3-yl)methoxy)-3-methylphenyl)piperazin-1-yl)-N-(5-(trifluoromethoxy)pyridin-2-yl)benzamide]	> 13.3 µM	0.0659 µM (≈ 0.0494 µg/mL)	0.052 µM (≈ 0.039 µg/mL)	–	–	–	–	–	–
Cc1cc(N2CCN(c3ccc(C(=O)Nc4ccc(OC(F)F)cc4)cc3)CC2)ccc1OC[C@@H]1CO[C@@](Cn2cncn2)(c2ccc(F)cc2F)C1 [Example 12, 4-(4-(4-(((3R,5R)-5-((1H-1,2,4-triazol-1-yl)methyl)-5-(2,4-difluorophenyl)tetrahydrofuran-3-yl)methoxy)-3-methylphenyl)piperazin-1-yl)-N-(4-difluoromethoxyphenyl)benzamide]	> 13.7 µM	0.0459 µM (≈ 0.0335 µg/mL)	0.0134 µM (≈ 0.00979 µg/mL)	0.0973 µM (≈ 0.0711 µg/mL)	0.0228 µM (≈ 0.0167 µg/mL)	0.0303 µM (≈ 0.0221 µg/mL)	–	–	–
NS(=O)(=O)c1ccc(NC(=O)c2ccc(N3CCN(c4ccc(OCC5CO[C@@](Cn6cncn6)(c6ccc(F)cc6F)C5)c(F)c4)CC3)cc2)cc1 (stereo in doubt) [Example 22, 4-(4-(4-(((3R,5R)-5-((1H-1,2,4-triazol-1-yl)methyl)-5-(2,4-difluorophenyl)tetrahydrofuran-3-yl)methoxy)-3-fluorophenyl)piperazin-1-yl)-N-(4-sulfamoylphenyl)benzamide]	> 13.4 µM	> 1.34 µM	0.0113 µM (≈ 0.00845 µg/mL)	0.00477 µM (≈ 0.00357 µg/mL)	0.0164 µM (≈ 0.0123 µg/mL)	0.022 µM (≈ 0.0165 µg/mL)	–	–	–
Cc1cc(N2CCN(c3ccc(C(=O)Nc4c(F)cc(F)cc4F)cc3)CC2)ccc1OC[C@@H]1CO[C@@](Cn2cncn2)(c2ccc(F)cc2F)C1 [Example 31, 4-(4-(4-(((3R, 5R)-5-((1H-1,2,4-triazol-1-yl)methyl)-5-(2,4-difluorophenyl)tetrahydrofuran-3-yl)methoxy)3-methylphenyl)piperazin-1-yl)-N-(2,4,6-trifluorophenyl)benzamide]	> 13.9 µM	0.163 µM (≈ 0.117 µg/mL)	0.0439 µM (≈ 0.0316 µg/mL)	0.0107 µM (≈ 0.00769 µg/mL)	0.0109 µM (≈ 0.00783 µg/mL)	0.0679 µM (≈ 0.0488 µg/mL)	–	–	–
CNS(=O)(=O)c1ccc(NC(=O)c2ccc(N3CCN(c4ccc(OC[C@@H]5CO[C@@](Cn6cncn6)(c6ccc(F)cc6F)C5)c(C)c4)CC3)cc2)cc1 [Example 20, 4-(4-(4-(((3R, 5R)-5-((1H-1,2,4-triazol-1-yl)methyl)-5-(2,4-difluorophenyl)tetrahydrofuran-3-yl)methoxy)-3-methylphenyl)piperazin-1-yl)-N-(4-(N-methylsulfamoyl)phenyl)benzamide]	> 13.2 µM	0.0461 µM (≈ 0.0349 µg/mL)	0.0188 µM (≈ 0.0142 µg/mL)	0.0361 µM (≈ 0.0274 µg/mL)	0.0111 µM (≈ 0.00841 µg/mL)	0.0146 µM (≈ 0.0111 µg/mL)	–	–	–
Cc1cc(N2CCN(c3ccc(C(=O)Nc4ccc(OC(F)F)c(F)c4)cc3)CC2)ccc1OC[C@@H]1CO[C@@](Cn2cncn2)(c2ccc(F)cc2F)C1 [Example 25, 4-(4-(4-(((3R,5R)-5-((1H-1,2,4-triazol-1-yl)methyl)-5-(2,4-difluorophenyl)tetrahydrofuran-3-yl)methoxy)-3-methylphenyl)piperazin-1-yl)-N-(4-(difluoromethoxy)-3-fluorophenyl) benzamide]	> 13.4 µM	0.0659 µM (≈ 0.0493 µg/mL)	0.0845 µM (≈ 0.0633 µg/mL)	0.23 µM (≈ 0.172 µg/mL)	0.0251 µM (≈ 0.0188 µg/mL)	0.0476 µM (≈ 0.0356 µg/mL)	–	–	–
Cc1cc(N2CCN(c3ccc(C(=O)Nc4ccc(C#N)cc4)cc3)CC2)ccc1OC[C@@H]1CO[C@@](Cn2cncn2)(c2ccc(F)cc2F)C1 [Example 9, 4-(4-(4-(((3R,5R)-5-((1H-1,2,4-triazol-1-yl)methyl)-5-(2,4-difluorophenyl)tetrahydrofuran-3-yl)methoxy)-3-methylphenyl)piperazin-1-yl)-N-(4-cyanophenyl)benzamide]	> 14.5 µM	0.114 µM (≈ 0.0786 µg/mL)	0.0291 µM (≈ 0.0201 µg/mL)	0.00521 µM (≈ 0.00359 µg/mL)	0.00739 µM (≈ 0.0051 µg/mL)	0.0232 µM (≈ 0.016 µg/mL)	–	–	–
O=C(Nc1ccc(F)cc1)c1ccc(N2CCN(c3ccc(OCC4CO[C@@](Cn5cncn5)(c5ccc(F)cc5F)C4)c(F)c3)CC2)cc1 (stereo in doubt) [Example 17, 4-(4-(4-(((3R, 5R)-5-((1H-1,2,4-triazol-1-yl)methyl)-5-(2,4-difluorophenyl)tetrahydrofuran-3-yl)methoxy)-3-fluorophenyl)piperazin-1-yl)-N-(4-fluorophenyl)benzamide]	> 14.6 µM	0.409 µM (≈ 0.281 µg/mL)	0.00215 µM (≈ 0.00148 µg/mL)	–	0.0185 µM (≈ 0.0127 µg/mL)	0.0133 µM (≈ 0.00913 µg/mL)	45%	72%	83%
Cc1cc(N2CCN(c3ccc(C(=O)Nc4ccc(Cl)cn4)cc3)CC2)ccc1OC[C@@H]1CO[C@@](Cn2cncn2)(c2ccc(F)cc2F)C1 [Example 41, 4-(4-(4-(((3R, 5R)-5-((1H-1,2,4-triazol-1-yl)methyl)-5-(2,4-difluorophenyl)tetrahydrofuran-3-yl)methoxy)-3-methylphenyl)piperazin-1-yl)-N-(5-chloropyridin-2-yl)benzamide]	> 14.3 µM	0.261 µM (≈ 0.183 µg/mL)	0.0576 µM (≈ 0.0403 µg/mL)	–	–	–	–	–	–
N#Cc1ccc(NC(=O)c2ccc(N3CCN(c4ccc(OCC5CO[C@@](Cn6cncn6)(c6ccc(F)cc6F)C5)c(F)c4)CC3)cc2)c(F)c1 (stereo in doubt) [Example 24, 4-(4-(4-(((3R, 5R)-5-((1H-1,2,4-triazol-1-yl)methyl)-5-(2,4-difluorophenyl)tetrahydrofuran-3-yl)methoxy)3-fluorophenyl)piperazin-1-yl)-N-(4-cyano-2-fluorophenyl)benzamide]	> 14.1 µM	0.191 µM (≈ 0.136 µg/mL)	0.0099 µM (≈ 0.00705 µg/mL)	–	0.0205 µM (≈ 0.0146 µg/mL)	0.014 µM (≈ 0.00996 µg/mL)	–	–	–
Cc1cc(N2CCN(c3ccc(C(=O)Nc4ccc(F)c(F)c4)cc3)CC2)ccc1OC[C@@H]1CO[C@@](Cn2cncn2)(c2ccc(F)cc2F)C1 [Example 27, 4-(4-(4-(((3R, 5R)-5-((1H-1,2,4-triazol-1-yl)methyl)-5-(2,4-difluorophenyl)tetrahydrofuran-3-yl)methoxy)-3-methylphenyl)piperazin-1-yl)-N-(3,4-difluorophenyl)benzamide]	> 14.3 µM	0.136 µM (≈ 0.0953 µg/mL)	0.0193 µM (≈ 0.0135 µg/mL)	–	0.0127 µM (≈ 0.0089 µg/mL)	0.0223 µM (≈ 0.0156 µg/mL)	–	–	–
